Experimental data taken from ChEMBL document CHEMBL1201862, “PubChem BioAssay data set” (2004).
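In this assay, cells in 96-well plates receive the compound at five concentrations for 48 hours. Endpoints are linearly interpolated between the surrounding concentrations. GI50 is the concentration that inhibits growth by half.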 The source made the active and inactive calls. Cut-off read from the data, not from the text of the source: active = GI50 up to about 1.1 µM and inactive = higher.

How the values were obtained:
Assay in all cases: NCI tumour cell line growth inhibition, 48 h
[1] = tested on: MCF7
[2] = tested on: SF-539
[3] = tested on: SW-620
[4] = tested on: Hs-578T
[5] = tested on: SK-OV-3
[6] = tested on: MOLT-4
[7] = tested on: NCI-H522
[8] = tested on: OVCAR-4
[9] = tested on: CCRF-CEM
[10] = tested on: OVCAR-3
[11] = tested on: ACHN
[12] = tested on: LOX IMVI
[13] = tested on: SNB-19
[14] = tested on: NCI/ADR-RES
[15] = tested on: SK-MEL-5
[16] = tested on: SNB-75
[17] = tested on: HOP-62
[18] = tested on: EKVX
[19] = tested on: K562

SMILES | GI50 [1] | GI50 [2] | GI50 [3] | GI50 [4] | GI50 [5] | GI50 [6] | GI50 [7] | GI50 [8] | GI50 [9] | GI50 [10] | GI50 [11] | GI50 [12] | GI50 [13] | GI50 [14] | GI50 [15] | GI50 [16] | GI50 [17] | GI50 [18] | GI50 [19]
CC1OC(Oc2c(-c3cc(O)c(O)c(O)c3)oc3cc(O)cc(O)c3c2=O)C(O)C(O)C1O (stereo not drawn) | > 100 µM (inactive) | > 100 µM (inactive) | > 100 µM (inactive) | > 100 µM (inactive) | > 100 µM (inactive) | > 100 µM (inactive) | > 100 µM (inactive) | > 100 µM (inactive) | > 10 µM (inactive) | > 100 µM (inactive) | > 100 µM (inactive) | > 100 µM (inactive) | > 100 µM (inactive) | > 100 µM (inactive) | > 100 µM (inactive) | > 100 µM (inactive) | > 100 µM (inactive) | > 100 µM (inactive) | –
COc1ccc(C2C(C=O)C(N3CCN(C)CC3)=Nc3nc4ccccc4n32)cc1 (stereo not drawn) | 13.2 µM (inactive) | 22.1 µM (inactive) | 17.3 µM (inactive) | 33 µM (inactive) | – | < 0.01 µM (active) | 13 µM (inactive) | 8.18 µM (inactive) | 2.31 µM (inactive) | 14.3 µM (inactive) | 18.2 µM (inactive) | 17.3 µM (inactive) | 15.3 µM (inactive) | 17.4 µM (inactive) | 15.9 µM (inactive) | 11.8 µM (inactive) | 12.2 µM (inactive) | 27.7 µM (inactive) | 1.08 µM (active)
O=C(/C=C(\Nc1ccccc1O)c1ccccc1)C(=O)NC12CC3CC(CC(C3)C1)C2 | > 10 µM (inactive) | 8.93 µM (inactive) | > 10 µM (inactive) | > 10 µM (inactive) | > 10 µM (inactive) | 5.66 µM (inactive) | > 10 µM (inactive) | > 10 µM (inactive) | 4.33 µM (inactive) | > 10 µM (inactive) | > 10 µM (inactive) | 9.14 µM (inactive) | – | > 10 µM (inactive) | 7.03 µM (inactive) | > 10 µM (inactive) | > 10 µM (inactive) | > 10 µM (inactive) | > 10 µM (inactive)
CC(C)[Si]1(C(C)C)OCC2OC(N3C(=O)NC(=O)C[C@@H]3C(O)c3ccccc3)CC2O[Si](C(C)C)(C(C)C)O1 (stereo partly drawn) | 3.92 µM (inactive) | 17 µM (inactive) | 3.4 µM (inactive) | 3.3 µM (inactive) | 5.71 µM (inactive) | 2.31 µM (inactive) | 3.18 µM (inactive) | 4.51 µM (inactive) | 2.54 µM (inactive) | 4.83 µM (inactive) | 7.11 µM (inactive) | 5.24 µM (inactive) | 9.93 µM (inactive) | 5.32 µM (inactive) | 11.3 µM (inactive) | 4.54 µM (inactive) | 11.9 µM (inactive) | 8.2 µM (inactive) | 2.76 µM (inactive)
C1CN(c2nc3c(nnc4nc(N5CCOCC5)sc43)s2)CCO1 | 73.3 µM (inactive) | > 100 µM (inactive) | > 100 µM (inactive) | 53.6 µM (inactive) | – | 58.7 µM (inactive) | 45.3 µM (inactive) | > 100 µM (inactive) | 52.8 µM (inactive) | 78.3 µM (inactive) | > 100 µM (inactive) | > 100 µM (inactive) | 89.1 µM (inactive) | > 100 µM (inactive) | > 100 µM (inactive) | – | > 100 µM (inactive) | > 100 µM (inactive) | > 100 µM (inactive)
NCCN/C(=N\c1ccccc1)Nc1ccccc1 | > 100 µM (inactive) | 70.8 µM (inactive) | > 100 µM (inactive) | > 100 µM (inactive) | > 100 µM (inactive) | > 100 µM (inactive) | 68.4 µM (inactive) | > 100 µM (inactive) | > 100 µM (inactive) | > 100 µM (inactive) | – | 83.8 µM (inactive) | > 100 µM (inactive) | > 100 µM (inactive) | 99.5 µM (inactive) | 72.6 µM (inactive) | > 100 µM (inactive) | > 100 µM (inactive) | > 100 µM (inactive)
S=C1SSC2N=CC=CC12 (stereo not drawn) | 36.7 µM (inactive) | > 100 µM (inactive) | > 100 µM (inactive) | > 100 µM (inactive) | > 100 µM (inactive) | 38.3 µM (inactive) | 68.9 µM (inactive) | 16.2 µM (inactive) | 5.66 µM (inactive) | > 100 µM (inactive) | > 100 µM (inactive) | 31.3 µM (inactive) | > 100 µM (inactive) | > 100 µM (inactive) | 43.3 µM (inactive) | > 100 µM (inactive) | – | > 100 µM (inactive) | 49.1 µM (inactive)
CC(=O)OCC1OC(N2C(C)=C(C(C)=O)C(c3ccc(Cl)cc3)C(C#N)=C2S)C(OC(C)=O)C(OC(C)=O)C1OC(C)=O (stereo not drawn) | 47 µM (inactive) | 44.1 µM (inactive) | 5.46 µM (inactive) | 28.5 µM (inactive) | – | 18.6 µM (inactive) | 32.4 µM (inactive) | 51.6 µM (inactive) | 44.1 µM (inactive) | 61.4 µM (inactive) | 77.8 µM (inactive) | 76.2 µM (inactive) | > 100 µM (inactive) | 8.71 µM (inactive) | 32.3 µM (inactive) | 27.9 µM (inactive) | > 100 µM (inactive) | – | 31.1 µM (inactive)
